From US6691045B1, “Method for determining discrete quantitative structure activity relationships” (Chemical Computing Group Inc., priority 1998, dated 2004)

Experiments:
[1] = molecular target: T1, Carbonic Anhydrase II receptor (Homo sapiens, UniProt P00918); details: example initial data set; cited from earlier work
[2] = molecular target: T1, Carbonic Anhydrase II receptor; test: binding affinity to Carbonic Anhydrase II, from scientific literature; details: threshold value 5.85
Excerpt: Each compound is given a numerical value indicating its binding affinity. Beside each drawing in Table 1, is a quantitative experimental assessment of binding affinity.
Otherwise, it would be 1.

estrogen receptor = details: relative binding affinity scale, estradiol = 100; binding at 0 to 4° C.; presumed ER-α; cited from earlier work

| SMILES | ACTIVITY (quantitative experimental assessment of binding affinity) [1] | CLASS (activity class, active/inactive) ([2]; structures as SMILES) | CLASS (activity class, active/inactive) ([2]; structures as drawings) | log RBA (estrogen receptor) |
| --- | --- | --- | --- | --- |
| CNS(=O)(=O)c1cccc(O)c1 | 5.92 | 1 (Otherwise, it would be 1) | 1 (Otherwise, it would be 1) |  |
| CC(=O)Nc1nnc(S(=O)(=O)NC(C)C)s1 | 5.80 | 0 (If the activity value is less than 5.85, the activity class is 0) | 0 (If the activity value is less than 5.85, the activity class is 0) |  |
| CC/C(=C(/CC)c1ccc(O)cc1)c1ccc(O)cc1 [DES, desthylstilbestrol] |  |  |  | 2.48 |
